The text below walks through data of patent publication US20080194631A1, “Medicament For the Treatment of Central Nervous System Disorders” (priority 2004, published 2008).

The test system of assay [1] is hyperactivity induced by MK801. Briefly: Model of locomotor hyperactivity induced by MK801. The following applies: clozapine 1 mg/kg. The assay is classed as in vivo. On the procedure: Given the pharmacological profile of the molecules chosen toward the noradrenergic and serotoninergic receptors, an antipsychotic activity was sought. The substances were tested in the model of locomotor hyperactivity induced by MK801. […] In this model and under our experimental conditions, clozapine (1 mg/kg) reduces by 56% the hyperactivity induced by MK 801.
Effect of the combination 1 mg/kg ifenprodil+1 mg/kg cyproheptadine on the locomotor activity induced by MK801 (cm covered, mean +SEM).

The test system of the next assay is C57/BL6J male mice. In words: Motor and exploratory activity test in open-field (effects of the products on the locomotor activity). The class given is in vivo. The following applies: ifenprodil alone, doses of less than 10 mg/kg.
The conditions of assay [2]: in vivo; cited from earlier work.
The subject of assay [3] is sensitization induced by amphetamine. In words: Behavioral sensitization protocol (amphetamine), locomotor activity in open-field. The assay is classed as in vivo, mice. The conditions noted are these: repeated sessions, amphetamine 2 mg/kg.
Description: (§1) The principle of the behavioral sensitization test is based on the measurement of the locomotor activity. The latter is measured in the open-field test.
(§2) The animals used are 9-week old C57/BL6J male mice at the beginning of the experiment.
(§3) The open-fields used to measure the activity are 4 square chambers made of transparent plexiglas. Each open-field is arranged in a setting equipped with photoelectric cells which make it possible to record the movements of the animal.
Groups receive beforehand an administration of one of the products or the combination of both.
During the 1st session, the animals receive NaCl at the 1st and 2nd injection. The experiment is performed over several sessions, 2 to 10 days apart.
The experiments were performed on 5 groups of animals which received the following treatments at each session.
In assay [4] the test system is stimulant effects of alcohol. The following applies: in vivo; cited from earlier work.
A further assay concerns alcohol withdrawal. The conditions noted are these: in vivo; cited from earlier work.

Description for C57/BL6J male mice: as §1
Motor and Exploratory Activity Test in Open-Field
as §2, §3
The products used have known psychotropic properties. […] Since the principle of the study is based on the measurement of the locomotor activity, it is preferable to have a preliminary evaluation of these effects under the experimental conditions used.
All the products are dissolved in physiological saline (0.9% NaCl) so that the volume for injection is 10 ml/kg of body weight.
IFENPRODIL was tested at the following doses: 1 mg/kg; 3 mg/kg and 10 mg/kg.
The experiments were also performed in order to evaluate the effect of the combination of the products:

For the molecule `CN1CCN(C2=Nc3cc(Cl)ccc3Nc3ccccc32)CC1` [clozapine], the “reduction of the hyperactivity induced by MK 801” value in assay [1] is listed as 56%.
With `CC(C(O)c1ccc(O)cc1)N1CCC(Cc2ccccc2)CC1` (stereo not shown) [Ifenprodil], in the assay with C57/BL6J male mice, the effect on locomotion entry was “does not have a significant effect”. Besides, the anxiolytic effects entry in assay [2] is “anxiolytic effects”. Moreover, the “effect on the development (and expression) of behavioral sensitization to amphetamine” value in assay [3] was “limited effects”. In addition, in assay [4], the “effect on the expression of sensitization (alcohol)” value is given as “does not block” and the “effect on the stimulant effects of alcohol” value is on record as “reduces”. Also, the “effect on the physical signs induced by alcohol withdrawal” value in the assay with alcohol withdrawal was “reduces”.
